Columns and labels:
[1] = test system: four types of lung cancer cell strains (AS2, H157, H460, H1650); assay: MTT cell activity test, four cell strains together; assay type: cell-based; details: 48 hours
Excerpt: To measure the ionized LY, PLAG nanoparticles (SF-NPs), and SF-LY NPs, PLGA NPs are applied to four selected types of lung cancer cell strains including AS2 (PTEN null), H157 (PI3KCA, PTEN null), H460 (PI3KCA) and H1650 (PTEN null) in this preferred embodiment, and different concentrations are used to process the ionized LY or SF-LY NPs and a MTT testing method is used to measure the cell activity, and the experiment procedure is described in details as follows:
The cells are inoculated in 96-hole culture boards (each hole has 5×10^3 cells) and cultured by 5% of CO2 at 37[…] till the next day. In four types of different cells, different doses of SF NPs, LY or SF-LY NPs are added and processed for 48 hours, and then a stock solution (with a content of 5 mg/ml in PBS) of a MTT agent at 37° C. is added to the 96-hole culture boards containing different processing drugs and wait for 4 fours before centrifuging the culture boards at 1200 rpm for 5 minutes, and after adding DMSO (capable of dissolving and precipitating products produced by the reaction of MTT and cells) for 5 minutes, the suspension is moved to a new ELISA board, and an ELISA reader (Varioskan, Thermo Electron) is used to measure the light absorption by 490 nm. […]

[2] = test system: H157 (PI3KCA, PTEN null) lung cancer cell strain; assay: MTT cell activity test; assay type: cell-based; details: H157, higher dosage, 48 hours
Excerpt: To measure the ionized LY, PLAG nanoparticles (SF-NPs), and SF-LY NPs, PLGA NPs are applied to four selected types of lung cancer cell strains including AS2 (PTEN null), H157 (PI3KCA, PTEN null), H460 (PI3KCA) and H1650 (PTEN null) in this preferred embodiment, and different concentrations are used to process the ionized LY or SF-LY NPs and a MTT testing method is used to measure the cell activity, and the experiment procedure is described in details as follows: The cells are inoculated in 96-hole culture boards (each hole has 5×10^3 cells) and cultured by 5% of CO2 at 37[…] till the next day. In four types of different cells, different doses of SF NPs, LY or SF-LY NPs are added and processed for 48 hours, and then a stock solution (with a content of 5 mg/ml in PBS) of a MTT agent at 37° C. is added to the 96-hole culture boards containing different processing drugs and wait for 4 fours before centrifuging the culture boards at 1200 rpm for 5 minutes, and after adding DMSO (capable of dissolving and precipitating products produced by the reaction of MTT and cells) for 5 minutes, the suspension is moved to a new ELISA board, and an ELISA reader (Varioskan, Thermo Electron) is used to measure the light absorption by 490 nm.

PC14PE6/AS2 cells tumor = assay: AS2 tumor model in nude mice, injection in the tumor; assay type: in vivo, Balb/c female nude mice; details: 1 mg/kg, injected in the tumor three times a week for two weeks
Experimental: Balb/c female nude mice were obtained from National Laboratory Animal Center, Taiwan. Mice of 6˜8 weeks old are used. The mice are randomly divided into four groups, and situated in the same environment with controlled tempeature, humidity and 12 h-light/dark cycle, and the controlled environmental conditions follows the environmental conditions for animal breeding set forth by National Cheng Kung University. The balb/c immunodeficient mice are innoculated with PC14PE6/AS2 cells (1×10^6 cells/1004 of PBS) by the subcutaneous inoculation method. If the tumor size is approximately equal to 50-60 cubic millimeters, the experiment starts taking place. […] The tumor size is measured by a caliper and a standard tumor volume measurement method (Volume=Long Axis×Short Axis^2×0.5). […]
After the procedure as shown in FIG. 5 takes place, the body weight of the mice is measured in every two other days to check whether there is a loss of weight. […] The survival rate is determined by the number of days when a natural death of each group of mice occurs or the tumor reaches a size of 4000 mm^3.

## O=c1cc(N2CCOCC2)oc2c(-c3ccccc3)cccc12 [LY294002, 2-(4-Morpholinyl)-8-phenyl-4H-1-benzopyran-4-one]
[1]
  toxicity of the cells: slight toxicity
[2]
  toxicity to H157 cells: slight toxicity
PC14PE6/AS2 cells tumor
  growth of tumors: insufficient to reduce the growth of tumors
PC14PE6/AS2 cells tumor; after 12˜14 days
  tumor size increase relative to start: approximately 40 times

Reference: patent US20140161891A1, “COMPOSITION OF PI3K INHIBITOR AND USE THEREOF” (priority 2012, published 2014)
